“Also recorded” adds a separate entry of the source.
Assays:
[1] = system: NO signaling in DC; assay: NO production in bone marrow-derived CD11c+ dendritic cells (DAF-2DA); format: cell-based, mouse; details: 100 μg/ml 15mer peptide; Balb/c DC; compared to ISL-negative peptides
Method: Bone marrow cells from Balb/c (A and B) or DBA/1 (C and D) mice were differentiated into DCs in culture with GM-CSF ([…]) and IL-4 ([…]). CD11c+ DCs were purified using magnetic beads with >95% purity. DCs were then incubated with SE-positive (65-79*0401 or 65-79*0404), or with SE-negative (65-79*0402 or 65-79*0403) 15mer peptides and NO production was measured as described below. The results are expressed as mean±SEM fluorescence units (FU), or FU per minute. *p<0.01 compared to all ligand controls.
DCs play a key role in immune regulation. […] DC cells were incubated over time with 100 μg/ml of ISL-positive or -negative 15mer peptides, and NO production was measured.
To determine the rate of NO production, cells were loaded with 20 μM of the fluorescent NO probe 4,5-diaminofluorescein diacetate (DAF-2DA) and the fluorescence level was recorded every 5 minutes over a period of 500 minutes using a Fusion αHT system (PerkinElmer Life Sciences) at an excitation wavelength of 488 nm and emission wavelength of 515 nm. To determine IDO enzymatic activity, the generation of its product, kynurenine was measured (Takikawa et al. 1988. J Biol Chem 263:2041-2048.; herein incorporated by reference in its entirety). Cytokine concentrations were measured in cell culture supernatants using a Luminex platform (Millipore Corporation, Danvers, Mass.). […]

[2] = system: CD8+ and CD8− DC; assay: Cytokine production by splenic DC subsets (Luminex); format: cell-based, mouse
Method: Splenic CD8+ and CD8− DC were isolated from DBA/1 mice as above and cultured in 96-well plates over time in the presence or absence of ISL-positive (65-79*0401) or ISL-negative (65-79*0402) peptides (50 μg/ml). At various time points thereafter, supernatants were collected and assayed for cytokine content, using the Luminex platform.
DBA/1 splenic unfractionated CD11c+ DCs (CD11c+), or their purified CD11c+CD8+ DCs (CD8+) or CD11c+CD8− DCs (CD8−) subsets were cultured with the ISL 65-79*0401 or ISL-negative control 65-79*0402 or medium. Supernatants were collected at different time points and assayed for cytokine content using a Luminex platform.
To determine the rate of NO production, cells were loaded with 20 μM of the fluorescent NO probe 4,5-diaminofluorescein diacetate (DAF-2DA) and the fluorescence level was recorded every 5 minutes over a period of 500 minutes using a Fusion αHT system (PerkinElmer Life Sciences) at an excitation wavelength of 488 nm and emission wavelength of 515 nm. To determine IDO enzymatic activity, the generation of its product, kynurenine was measured (Takikawa et al. 1988. J Biol Chem 263:2041-2048.; herein incorporated by reference in its entirety). Cytokine concentrations were measured in cell culture supernatants using a Luminex platform (Millipore Corporation, Danvers, Mass.). In some experiments, cytokines were determined using ELISA (Quantikine®, R&D Systems, Minneapolis, Minn.) following the manufacture's instruction.

[3] = system: CD4+IL17A+ T cells; assay: Th17 differentiation and IL-17 production in DC/CD4+ T cell co-culture; format: cell-based, mouse; details: peptide-stimulated DCs; naïve T cells, Th17-polarizing cocktail, 6 days
Method: DBA/1 bone marrow-derived CD11c+DCs were cultured overnight in the presence or absence of (A) ISL 65-79*0401 or ISL-negative control 65-79*0402, or (B) ISL-positive T-DRB1*0401 tetramers, versus ISL-negative T-DRB1*0301, or T-DRB1*1501 tetramers. Syngeneic splenic CD4+CD25−CD62L+CD44− naïve T cells plus a Th17-differentiation cytokine/antibody cocktail were then added to the culture and incubated for 6 days. Intracellular IL17A was determined by flow cytometry. On the left: a representative experiment, one of three repetitions, showing percentages of CD4+IL17A+ cells as dot plots. On the right: bar graphs show results presented as mean percentage±SD of replicate samples.
(A) DBA/1 bone marrow-derived CD11c+ DCs were cultured overnight with different peptidic ligands as above. Syngeneic splenic CD4+ T cells plus a Th17-polarizing cocktail were added to the culture and incubated for 6 days. IL-17A-positive cells were quantified by flow cytometry. On the left: dot plots showing percentage of CD4+IL17A+ T cells. […]
After 6 days, cells were stimulated with PMA (5 ng/ml) and ionomycin (500 ng/ml) for the last 6 hrs of culture. […] Mean florescence intensity and percentages of stained cells were determined by flow cytometry.

[4] = system: Th17 cells; assay: Expansion of pathogen-specific Th17 cells in immunized CII-TCR Tg mice; format: in vivo

H-KDLLEQKRAAVDTYC-NH2 [65-79*0401]
NO production [1]: much more robust NO production
IL-6 / cytokine production ([2]; CD11c+CD8+ DCs, 50 μg/ml peptide): no production of any cytokines; also recorded: not in the CD11c+CD8+ subset
time point of IL-6 peak ([2]; CD11c+CD8− DCs): 24 h
IL-6 production ([2]; CD11c+CD8− DCs, 50 μg/ml peptide): robust production
production of other cytokines (IL-4, IL-10, IL-12, IL-1β, TGFβ) ([2]; splenic DCs): did not show any increased production
differentiation of CD4+IL17A+ T cells [3]: significant increase
total antigen non-stimulated Th17 cells in draining lymph nodes ([4]; 100 μg i.p. days 0, 7, 14, 21, day 42): significant increase
percentage of Th17 cells after 6 days in culture ([4]; lymph node cells re-stimulated with bacterial antigen PPD): 13.1±0.5%
percentage of Th17 cells after 6 days in culture ([4]; lymph node cells stimulated with CII): 8.4±0.5%
percentage of Th17 cells after 6 days in culture ([4]; lymph node cells, without any antigen stimulation): 5.4±0.4%

— patent publication US9555086B2, “Compositions and methods for inducing an immune response” (The Regents of the University of Michigan, priority 2010, dated 2017)
